The record followed here is patent publication US5006570A, “Dihydrobenzofuran- and chroman-carboxamide derivatives, processes for the preparation thereof and use thereof as neuroleptics” (Laboratoires Delagrange, priority 1986, dated 1991).

Like-named read-outs stand apart in the source and are kept apart here.

The test system of series [1] is spontaneous motor function in mice. Put plainly: Inhibition of spontaneous motor function in mice, Winter and Flataker test (photoelectric method). In kind it is in vivo. The following applies: Mus musculus. From the text: (§1) Thus, an inhibitory effect on spontaneous motor function in mice, a catalepsy-inducing power in rats, and antagonism towards certain apomorphine- and amphetamine-induced behavioural effects were investigated, in particular.
(§2) Regarding the spontaneous motor function in mice, an inhibitory effect of the inventive compounds was effectively observed and recorded by a photoelectric method, according to a technique similar to that of Winter and Flataker (J. Pharmacol. Exp. Ther. 1951, 101, 156-162) and by measurement of activity using an Animex apparatus.
(§3) The compounds were administered intraperitoneally or orally, respectively, 15 or 60 minutes before the recording according to the method adopted.
(§4) The values of the 50% inhibitory doses of motor function ID50 of the compounds are collected in the following table: […]

A further series deals with catalepsy in rats. Description: Catalepsy in rats. In kind it is in vivo. The following applies: Rattus norvegicus, sc, subcutaneously, at the peak of effect. As for the experimental part: The catalepsy-inducing function of the compounds of the invention was studied in rats. Each of the compounds was administered subcutaneously, at increasing doses, to groups of 10 rats (1 group for each dose). […] The dose giving rise to catalepsy in 50% of the animals (ED50) was determined graphically, at the peak of effect.

Series [2] deals with Apomorphine stereotypy. Description: Antagonism of apomorphine stereotypy in rats (1.25 mg/kg IV, Janssen). Format: in vivo. The following applies: Rattus norvegicus, sc, compound s.c. 60 minutes before apomorphine 1.25 mg/kg IV, read-out: ID50 S.C., Apomorphine stereotypy (1.25 mg/kg IV). From the text:
(§5) Apomorphine and amphetamine induce stereotyped movements in rats which are antagonized by neuroleptics. […]
(§6) These different experimental conditions made it possible to establish the doses which antagonize stereotypy by 50% (ID50), judged on the basis of the various components of the movements which were observed.

For series [3], the system named is apomorphine-induced climbing behavior. Description: Antagonism of apomorphine-induced climbing behavior in mice. In kind it is in vivo. Conditions: Mus musculus, ip, compound i.p. 30 minutes before apomorphine 1 mg/kg s.c., read-out: ID50 I.P., apomorphine-induced climbing behavior. As for the experimental part: Another test using apomorphine was applied, based on the observation of the climbing behavior which it induces in mice, this behavior being antagonized by neuroleptics, according to Puech (Eur. J. Pharmacol. 1978, 50, 291-300).
The compound was administered intraperitoneally 30 minutes before the apomorphine (1 mg/kg subcutaneously), and the antagonism was assessed 45 to 50 minutes after the administration of the compound.

Series [4] deals with Apomorphine stereotypy. Put plainly: Antagonism of apomorphine stereotypy in rats (0.5 mg/kg SC, derived from Puech). In kind it is in vivo. The following applies: Rattus norvegicus, ip, compound i.p. 30 minutes before apomorphine 0.5 mg/kg SC, read-out: ID50 I.P., Apomorphine stereotypy (0.5 mg/kg SC).
Source text: as §5, §6

Series [5] concerns dexamphetamine stereotypy. Description: Antagonism of dexamphetamine stereotypy in rats (Janssen amphetamine test). Format: in vivo. The following applies: Rattus norvegicus, sc, 1 h, compound s.c. simultaneously with dexamphetamine 10 mg/kg i.v., effect at 60 minutes, read-out: ID50 S.C., Janssen amphetamine test. The procedure: Apomorphine and amphetamine induce stereotyped movements in rats which are antagonized by neuroleptics. Different doses of apomorphine administered by different routes were applied to produce these movements. In the test using dexamphetamine, carried out according to the technique of Janssen (Arz. Forsch. 1961, 11, 932-938), 10 mg/kg of dexamphetamine were injected intravenously, the test product being injected simultaneously subcutaneously, and the effect being measured 60 minutes after these injections. These different experimental conditions made it possible to establish the doses which antagonize stereotypy by 50% (ID50), judged on the basis of the various components of the movements which were observed.

The subject of series [6] is spontaneous motor function in mice. Put plainly: Inhibition of spontaneous motor function in mice, Animex activity measurement test. In kind it is in vivo. Conditions: Mus musculus.
Source text: as §1, §2, §3, §4

A short description of series [7]: Acute toxicity in mice (LD50, Bliss' method). The following applies: mouse, in vivo. The procedure:
Acute toxicity was studied in mice, the compounds being administered intravenously, subcutaneously, intraperitoneally and orally.
The doses causing the death of 50% of the animals (LD50) were determined by Bliss' method, giving the following results: […]

Setting [8] is: ip, read-out: ID50 i.p., Winter and Flataker test.
The mark [9] stands for this setting: po, read-out: ID50 p.o., Winter and Flataker test.
Setting [10] is: ip, read-out: ID50 i.p., Animex activity measurement test.
Setting [11] is: po, read-out: ID50 p.o., Animex activity measurement test.
[12] abbreviates: ip, read-out: Lethal doses50 i.p.
Setting [13] is: iv, read-out: Lethal doses50 i.v.
Setting [14] is: po, orally, read-out: Lethal doses50 orally.
Setting [15] is: sc, read-out: Lethal doses50 s.c.

With `CNS(=O)(=O)c1cc2c(c(C(=O)NCC3CCCN3CC3=CCCCC3)c1)OC(C)C2` (stereo not shown) [Ex 1, N-(1-Cyclohexenylmethyl-2-pyrrolidinylmethyl)-5-methylsulphamoyl-2-methyl-2,3-dihydrobenzofuran-7-carboxamide], the ED50 in series [1] (setting [8]) was 1.8 mg/kg; in series [1] (setting [9]), 12.4 to 13.2 mg/kg; with catalepsy in rats, 6.6 mg/kg; in the series with Apomorphine stereotypy [2] it was 0.375 mg/kg; in series [3] it was 0.55 to 0.63 mg/kg; in the series on Apomorphine stereotypy [4] it was 0.64 to 0.65 mg/kg. In addition, the results for the ED50 in series [5], in series [6] (setting [10]) and in series [6] (setting [11]) were 0.285 mg/kg, 2.15 to 3.4 mg/kg and 19.2 to 22.4 mg/kg, respectively. For the same compound, the LD50 was 134 to 152 mg/kg in series [7] (setting [12]), 30.5 to 35.2 mg/kg in series [7] (setting [13]), 259 to 295 mg/kg in series [7] (setting [14]) and 316 to 318 mg/kg in series [7] (setting [15]).

In the case of `CNS(=O)(=O)c1cc2c(c(C(=O)NCC3CCCN3CC3=CCCCC3)c1)OCCC2` (stereo not shown) [Ex 2, N-(1-Cyclohexenylmethyl-2-pyrrolidinylmethyl)-6-methylsulphamoylchroman-8-carboxamide], the ED50 in series [1] (setting [8]) is 6.2 mg/kg; in series [1] (setting [9]), 31.5 mg/kg; in the series with catalepsy in rats, 17.6 mg/kg; in the series on Apomorphine stereotypy [2], 0.73 mg/kg; in series [3], 1.2 to 1.24 mg/kg; with Apomorphine stereotypy [4], 2.5 to 2.7 mg/kg. Also, the ED50 in series [5] came out at 0.77 mg/kg; in series [6] (setting [10]) it was 7.5 mg/kg; in series [6] (setting [11]), 31.5 mg/kg. The LD50 is 167 to 172 mg/kg in series [7] (setting [12]), 42.6 to 43.7 mg/kg in series [7] (setting [13]), 342 to 354 mg/kg in series [7] (setting [14]) and 406 to 408 mg/kg in series [7] (setting [15]).

Regarding `CCS(=O)(=O)c1cc2c(c(C(=O)NCC3CCCN3CC3CC3)c1)OC(C)C2.Cl` (stereo not shown) [Ex 9, N-(1-Cyclopropylmethyl-2-pyrrolidinylmethyl)-5-ethylsulphonyl-2-methyl-2,3-dihydrobenzofuran-7-carboxamide hydrochloride], the ED50 in series [1] (setting [8]) is 3.2 mg/kg; in series [1] (setting [9]) it was 31.5 mg/kg; in the series with catalepsy in rats, 20.7 mg/kg; in the series with Apomorphine stereotypy [2] it was 3.6 mg/kg; in series [3] it was 0.4 to 0.55 mg/kg; with Apomorphine stereotypy [4] it was 1.2 to 1.6 mg/kg. In addition, the ED50 in series [5] worked out at 1.1 mg/kg; in series [6] (setting [10]), 3 mg/kg; in series [6] (setting [11]) it was 23.4 mg/kg. Besides, the LD50 in series [7] (setting [12]) lay in the range of 211 to 213 mg/kg; in series [7] (setting [13]) it was 68.8 to 70.2 mg/kg; in series [7] (setting [14]) it was 390 to 391 mg/kg; in series [7] (setting [15]), 440 to 462 mg/kg.

In the case of `CCS(=O)(=O)c1cc2c(c(C(=O)NCC3CCCN3CC3=CCCCC3)c1)OCCC2` (stereo not shown) [Ex 11, N-(1-Cyclohexenylmethyl-2-pyrrolidinylmethyl)-6-ethylsulphonylchroman-8-carboxamide], the ED50 in series [1] (setting [8]) was 1.3 mg/kg; in series [1] (setting [9]), 16.6 mg/kg; with catalepsy in rats, 1.66 mg/kg; with Apomorphine stereotypy [2], 0.134 mg/kg; in series [3], 0.105 to 0.126 mg/kg; in the series with Apomorphine stereotypy [4], 0.18 to 0.23 mg/kg. Also, the ED50 in series [5] worked out at 0.066 mg/kg; in series [6] (setting [10]), 1.22 mg/kg; in series [6] (setting [11]) it was 16.6 mg/kg. For the same compound, the LD50 in series [7] (setting [12]) fell in the range of 125 to 127 mg/kg; in series [7] (setting [13]), 28 to 28.6 mg/kg; in series [7] (setting [14]), 149 to 163 mg/kg; in series [7] (setting [15]), 141 to 145 mg/kg.

As for `O=C(NCC1CCCN1CC1=CCCCC1)c1cc(Cl)cc2c1OCCC2.O=C(O)/C=C/C(=O)O` (stereo not shown) [Ex 13, N-(1-Cyclohexenylmethyl-2-pyrrolidinylmethyl)-6-chlorochroman-8-carboxamide fumarate], the ED50 in series [1] (setting [8]) was 1.96 mg/kg; in series [1] (setting [9]), 20.9 mg/kg; with catalepsy in rats, 1.5 mg/kg; in the series with Apomorphine stereotypy [2], 0.22 mg/kg; in series [3] it was 0.32 to 0.35 mg/kg; with Apomorphine stereotypy [4], 0.38 to 0.44 mg/kg. Moreover, the values for the ED50 in series [5], in series [6] (setting [10]) and in series [6] (setting [11]) were 0.15 mg/kg, 3 mg/kg and 22.7 mg/kg, respectively. Moreover, the LD50 in series [7] (setting [12]) is 120 mg/kg; in series [7] (setting [14]), 422 to 473 mg/kg. For the same compound, in series [7] (sc, at 900 mg/kg, read-out: deaths of animals at 900 mg/kg s.c.), the mortality was 0%.
